From PubChem BioAssay (NCI) come the findings set out here.

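Five concentrations, 48 hours, 96-well plates. GI50 is the concentration that inhibits growth by half. TGI is the concentration that stops growth completely.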

Test systems include KM20L2 colon; XF 498 CNS; HS 578T breast; DU-145 prostate; RXF-631 renal; MDA-N; SNB-78 CNS; DMS 114 small cell lung; LXFL 529 NSCLC; SN12K1 renal; P388 leukemia.
Holding throughout (assay): NCI tumour cell line growth inhibition, 48 h

As for `CC(O)C(NC(=O)C(CS)NC(=O)C(CO)NC(=O)C(CCCCN)NC(=O)C(Cc1c[nH]c2ccccc12)NC(=O)C(Cc1ccc(O)cc1)NC(=O)C(CS)NC(=O)C(N)Cc1ccccc1)C(N)=O` (stereo not given), the TGI in the assay on KM20L2 colon was 55.8 µM; in the assay with XF 498 CNS, 53.8 µM; in the assay with HS 578T breast, > 25 µM; in the assay with DU-145 prostate it was > 25 µM; with RXF-631 renal, 43.7 µM; with MDA-N, > 25 µM. For the same compound, the TGI in the assay on SNB-78 CNS came to 96 µM; in the assay on DMS 114 small cell lung, 87.9 µM.

Regarding `COC(=O)C12C3C4C1C1C2C3C41I` (stereo not given), the TGI in the assay on KM20L2 colon, in the assay with XF 498 CNS, in the assay on RXF-631 renal, in the assay with LXFL 529 NSCLC, in the assay with SNB-78 CNS and with DMS 114 small cell lung was > 100 µM each time.

Turning to `O=C1c2cccc3cc([N+](=O)[O-])cc(c23)C(=O)N1CCCN1CCN(CCCN2C(=O)c3cccc4cc([N+](=O)[O-])cc(c34)C2=O)CC1`, the TGI in the assay on KM20L2 colon was > 100 µM; in the assay on XF 498 CNS it was 4.06 µM; with RXF-631 renal, 3.21 µM; in the assay on LXFL 529 NSCLC, > 100 µM; in the assay on SNB-78 CNS, 12.9 µM.

Take `CC(=O)O/C(C)=C\C(=O)O/N=C(\N)c1ccc(C)cc1`: the TGI in the assay with KM20L2 colon was > 100 µM; in the assay with XF 498 CNS, > 100 µM; with RXF-631 renal, 61.1 µM; in the assay on LXFL 529 NSCLC, 59.9 µM; in the assay with SNB-78 CNS, 70.9 µM; in the assay with DMS 114 small cell lung, 45 µM.

Consider `COc1cccc2c1C1=CC(=O)CCC1C(C)(C)O2` (stereo not given), for which the TGI in the assay on KM20L2 colon was > 100 µM; in the assay with RXF-631 renal, > 100 µM; with LXFL 529 NSCLC it was > 100 µM; in the assay with SNB-78 CNS, > 100 µM; in the assay on DMS 114 small cell lung it was 61.5 µM.

As for `COc1ccc(N=Cc2ccc(N(CCC#N)CCC#N)cc2)cc1`, the TGI in the assay on KM20L2 colon is > 100 µM; in the assay with XF 498 CNS it was > 100 µM; with HS 578T breast, > 100 µM; in the assay with DU-145 prostate it was > 100 µM; in the assay on LXFL 529 NSCLC, > 84.5 µM; with MDA-N, > 100 µM. The TGI in the assay with SNB-78 CNS and with DMS 114 small cell lung was > 100 µM throughout.

Regarding `CCCCCCCCCCCCC(SCCNC(=O)CCNC(=O)C(O)C(C)(C)COP(=O)(O)OP(=O)(O)OCC1OC(n2cnc3c(N)ncnc32)C(O)C1OP(=O)(O)O)C(=O)NCC(N)=O` (stereo not given), the TGI with KM20L2 colon, in the assay with RXF-631 renal, in the assay with LXFL 529 NSCLC and in the assay on DMS 114 small cell lung was > 100 µM in each case.

Turning to `CCOC(=O)C(=O)Nc1c(C)cccc1CC`, the TGI in the assay on KM20L2 colon, with XF 498 CNS, in the assay with RXF-631 renal, in the assay with LXFL 529 NSCLC, with SNB-78 CNS and with DMS 114 small cell lung was > 100 µM throughout.

Regarding `Cn1cc(NC(=O)c2cc(NC(=O)CCCCCC(=O)Nc3cc(C(=O)Nc4cc(C(=O)NCCC(=N)N)n(C)c4)n(C)c3)cn2C)cc1C(=O)NCCC(=N)N`, the TGI in the assay with KM20L2 colon, with XF 498 CNS, in the assay with RXF-631 renal, in the assay with LXFL 529 NSCLC, in the assay on SNB-78 CNS and in the assay with DMS 114 small cell lung was > 100 µM throughout.

On to `CN(C)CCNC(=O)c1cc([N+](=O)[O-])cc2ccc(-c3ccccc3)nc12`, for which the TGI was 15.2 µM in the assay on SN12K1 renal; 31.2 µM in the assay on KM20L2 colon; 21.7 µM in the assay on XF 498 CNS; 58 µM with LXFL 529 NSCLC; > 60.9 µM with SNB-78 CNS; 28.6 µM in the assay on DMS 114 small cell lung.

For the compound `c1cncc(C2c3[nH]c4ccccc4c3CCN2CCN2CCCCC2)c1` (stereo not given), the TGI with KM20L2 colon, in the assay on XF 498 CNS, in the assay on RXF-631 renal, in the assay on LXFL 529 NSCLC, in the assay with SNB-78 CNS and with DMS 114 small cell lung was > 100 µM each time.

With `CC1=C(N2CC2)C(=O)c2nc3n(c2C1=O)CCC3O` (stereo not given), the TGI in the assay on KM20L2 colon came to 5.95 µM; with XF 498 CNS it was 29.8 µM; with HS 578T breast it was 0.0585 µM; with DU-145 prostate it was 0.0717 µM; in the assay with LXFL 529 NSCLC, 2.44 µM; in the assay on SNB-78 CNS it was 0.131 µM. Also, the TGI in the assay with DMS 114 small cell lung was 2.68 µM.

In the case of `c1cc2c(cnc3cscc32)s1`, the TGI in the assay on XF 498 CNS, in the assay on RXF-631 renal, with SNB-78 CNS and in the assay with DMS 114 small cell lung was > 100 µM each time.

For `CCCN(CCCCC(NC(C)=O)C(=O)NCc1ccccc1)C(=O)NC` (stereo not given), the TGI in the assay with KM20L2 colon, in the assay on XF 498 CNS, in the assay on RXF-631 renal, in the assay on LXFL 529 NSCLC, with SNB-78 CNS and in the assay on DMS 114 small cell lung was > 100 µM each time.

For `CCc1cccc(C)c1NC(=O)CC1Sc2ccccc2NC1=O` (stereo not given), the TGI in the assay with KM20L2 colon, with XF 498 CNS, in the assay with RXF-631 renal, with LXFL 529 NSCLC, with SNB-78 CNS and in the assay with DMS 114 small cell lung was > 100 µM in each case.

In the case of `CC(SC1=CC(=O)c2c(O)ccc(O)c2C1=O)C(=O)O` (stereo not given), the TGI in the assay with KM20L2 colon was > 100 µM; in the assay on XF 498 CNS, > 82.2 µM; in the assay on RXF-631 renal it was > 100 µM; in the assay on LXFL 529 NSCLC, > 51.6 µM; in the assay with SNB-78 CNS it was > 79.1 µM; in the assay on DMS 114 small cell lung, 44 µM.

On to `[Cl][Sn]([c]1ccccc1)[c]1ccccc1`, for which the GI50 is 14.9 µM in the assay with KM20L2 colon; 2.68 µM with XF 498 CNS; 3.86 µM in the assay on RXF-631 renal; 1.4 µM in the assay on LXFL 529 NSCLC; 6.96 µM in the assay on SNB-78 CNS; 3.47 µM in the assay with DMS 114 small cell lung. Moreover, the TGI in the assay on KM20L2 colon amounted to 30.4 µM; in the assay on XF 498 CNS, 5.22 µM; with RXF-631 renal, 27 µM; in the assay on LXFL 529 NSCLC it was 3.13 µM; in the assay on SNB-78 CNS, 31 µM; with DMS 114 small cell lung, 19.4 µM.

On to `Cn1c(=O)c2c(nc3n2CCC(=O)N3)n(C)c1=O`, for which the TGI in the assay with KM20L2 colon, with RXF-631 renal, in the assay with LXFL 529 NSCLC, in the assay with SNB-78 CNS and with DMS 114 small cell lung was > 100 µM each time.

In the case of `Nc1ccc2c(c1)[O][Sn]([c]1ccccc1)([c]1ccccc1)[O]C2=O`, the GI50 was 18 µM in the assay on KM20L2 colon; 4.06 µM with HS 578T breast; 15.5 µM in the assay with DU-145 prostate; 15.9 µM with RXF-631 renal; 1.51 µM with LXFL 529 NSCLC; 2.95 µM in the assay with MDA-N. The GI50 in the assay on SNB-78 CNS is 5.31 µM; with DMS 114 small cell lung it was 6.68 µM. For the same compound, the TGI in the assay on KM20L2 colon stood at 31.9 µM; in the assay on HS 578T breast, 22.2 µM; in the assay on DU-145 prostate it was 28.9 µM; in the assay with RXF-631 renal, 29.9 µM; with LXFL 529 NSCLC, 3.12 µM; in the assay with MDA-N it was 9.26 µM. For the same compound, the TGI in the assay with SNB-78 CNS amounted to 23.4 µM; with DMS 114 small cell lung, 18.7 µM.

Regarding `CCCN(CCC)c1c([N+](=O)[O-])cc(S(N)(=O)=O)cc1[N+](=O)[O-]`, the TGI came to 37.4 µM in the assay on KM20L2 colon; 30.2 µM in the assay on XF 498 CNS; 35.5 µM with RXF-631 renal; 30 µM in the assay with LXFL 529 NSCLC; 40.3 µM in the assay on DMS 114 small cell lung.

In the case of `CCCCS(=N)(=O)CC[C@H](N)C(=O)O` (stereo not given in full), the TGI in the assay with SN12K1 renal is 3750 µM; with KM20L2 colon, > 5000 µM; in the assay on XF 498 CNS it was 604 µM; with HS 578T breast it was > 10000 µM; in the assay with DU-145 prostate it was > 10000 µM; in the assay with P388 leukemia it was 5000 µM. Further, the TGI was > 10000 µM in the assay with MDA-N, > 5000 µM with SNB-78 CNS and > 5000 µM with DMS 114 small cell lung. Also, the figures for the GI50 in the assay on HS 578T breast, in the assay on DU-145 prostate and with MDA-N were > 8500 µM, > 10000 µM and > 5000 µM, respectively.

As to `CC[C@@]1(OC(=O)CCC(=O)O)C(=O)OCc2c1cc1n(c2=O)Cc2cc3ccccc3nc2-1`, the TGI was 33.8 µM in the assay on KM20L2 colon; 5.38 µM in the assay with XF 498 CNS; > 100 µM in the assay with HS 578T breast; 1.51 µM in the assay on DU-145 prostate; 17.6 µM in the assay with RXF-631 renal; > 45.4 µM with LXFL 529 NSCLC. The TGI is 5.51 µM with MDA-N, > 100 µM with SNB-78 CNS and 1.08 µM in the assay on DMS 114 small cell lung.

With `c1ccc(COc2ccc3[nH]c4c(ncc5[nH]c6ccccc6c54)c3c2)cc1`, the TGI in the assay on KM20L2 colon was 20.4 µM; with XF 498 CNS, 26.6 µM; in the assay on LXFL 529 NSCLC, 29.5 µM; in the assay on SNB-78 CNS, 40 µM; in the assay on DMS 114 small cell lung, 38.3 µM.

Turning to `O=C(O)c1[nH]c(C(=O)O)c(CC(F)(F)C(F)(F)C(F)(F)F)c1CC(F)(F)C(F)(F)C(F)(F)F`, the TGI with KM20L2 colon, with XF 498 CNS, in the assay with RXF-631 renal, with LXFL 529 NSCLC, in the assay with SNB-78 CNS and in the assay with DMS 114 small cell lung was > 100 µM each time.

On to `C=CCN(N=O)C(=O)N(CCC)CCCC(NC(C)=O)C(=O)NCc1ccccc1` (stereo not given), for which the TGI with KM20L2 colon, in the assay on XF 498 CNS, in the assay on RXF-631 renal, in the assay on LXFL 529 NSCLC and in the assay on DMS 114 small cell lung was > 100 µM in each case.
